Data: article PMC6123649, “Structural basis for specific inhibition of the highly sensitive ShHTL7 receptor” (EMBO Reports, 2018)
Read-outs that look alike come from different tables or passages of the source.

What was measured:
ShHTL7 [1] = target: T1, ShHTL7 (Striga hermonthica, UniProt A0A0M3PNA2); assay: Yoshimulactone Green (YLG) hydrolysis competition assay; assay type: biochemical
T1 sequence (A0A0M3PNA2 1-271): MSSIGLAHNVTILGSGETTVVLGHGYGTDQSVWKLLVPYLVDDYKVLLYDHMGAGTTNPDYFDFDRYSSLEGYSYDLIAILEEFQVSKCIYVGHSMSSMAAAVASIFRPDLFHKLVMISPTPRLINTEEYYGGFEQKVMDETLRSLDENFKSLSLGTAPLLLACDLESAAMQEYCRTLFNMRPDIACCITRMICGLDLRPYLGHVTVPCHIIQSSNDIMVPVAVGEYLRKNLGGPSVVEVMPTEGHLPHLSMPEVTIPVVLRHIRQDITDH
Experimental: In vitro YLG hydrolysis assays were performed using 3 μM of ShHTL7, ShHTL7‐L143Y, AtD14, and OsD14 in a reaction buffer (1× PBS) with 0.1% dimethyl sulfoxide (DMSO) in a 100 μl volume on a 96‐well black plate (Greiner). The fluorescent intensity was measured by SpectraMax i3 (Molecular Devices) using an excitation wavelength of 480 nm and a detection wavelength of 520 nm. […] Protein‐Triton mixes were pre‐incubated for 30 min. 1 μM YLG (Tokyo Chemical Industry Co. Ltd.) was then added, and the assay was incubated for 60 min. The change in fluorescence observed over the course of 1 h incubation of YLG in buffer without protein was subtracted from the data collected in the presence of protein. The resulting relative fluorescence values were analyzed. The inhibitory curves and IC50 values were plotted using GraphPad (Prism 6) four‐parameter logistic curve. The rate of YLG hydrolysis by ShHTL7 was recorded following the above method at 10‐min interval for 2 h.

ShHTL6 = system: ShHTL6; design: method as in PMID 26293962, PMID 26450211; conditions: recombinant ShHTL6; read-out: IC50 for GR24, in vitro YLG assay; cited from earlier work
ShHTL7 [2] = target: T1, ShHTL7; assay: Microscale thermophoresis (MST); assay type: binding
Experimental: ShHTL7 was N‐terminally labeled with RED dye (NT‐647) following the protocol from manufacturer (NanoTemper, Germany). Free dye was removed by passing through the Sephadex G‐25 column. Serial dilutions of unlabeled Triton X‐100, GR24, and PAA ranging from 25 μM to sub‐nanomolar range were mixed with 20 nM of NT‐647‐labeled ShHTL7 in buffer (50 mM Tris–HCl, 150 mM NaCl, 0.005% Tween‐20) and incubated for 2.5 h in the studies for Triton X‐100 and PAA except with GR24, and it was recorded after 10‐min incubation. About 10 μl of sample was loaded into premium monolith NT capillaries, and assays were carried out in a NanoTemper Monolith NT.015T. The red fluorescence was excited by a light‐emitting diode, and its emission was recorded on the focused part of capillaries. Using laser diode, a microscopic temperature gradient was created at the same location and the fluorescence depletion was measured. K d values were determined by plotting the concentrations of unlabeled ligands against the changes in fluorescent thermophoresis signal, and the data were analyzed using the NanoTemper analysis software.

ShHTL7 [3] = target: T1, ShHTL7; conditions: cited from earlier work
ShHTL7 [4] = target: T1, ShHTL7; assay: Differential static light scattering (DSLS), aggregation temperature; assay type: binding; conditions: 10 μM protein, varying compound concentrations
Experimental: The specific aggregation temperature, T agg, at which ShHTL7, ShHTL7L143Y, AtD14, and OsD14 aggregated in the presence or absence of Triton X‐100, GR24, and PAA was measured using DSLS on the Stargazer system (Harbinger Biotechnology and Engineering Corporation, Markham, Canada). Protein samples at a concentration of 10 μM were overlaid with mineral oil in a clear bottom 384‐well black plate (Corning) and heated from 20 to 95°C at 1°C/min; light scattering was detected by a CCD camera every 0.5°C in the presence or absence of varying concentrations of Triton X‐100, GR24, and PAA yielding the difference in aggregation temperature at a particular concentration from apoproteins (ΔT agg). Data were normalized, and ΔT agg plotted against the Triton X‐100, GR24, and PAA concentration. Resulting data were plotted to determine the change in T agg of all proteins when bound to Triton X‐100, GR24, and PAA using GraphPad (Prism 6).

ShHTL4‐6 = system: ShHTL4‐6; design: method as in PMID 26293962; conditions: transgenic A. thaliana, read-out: EC50 values for GR24; cited from earlier work
ShHTL7 [5] = target: T1, ShHTL7; assay: Intrinsic tryptophan fluorescence assay; assay type: binding
ShHTL7 [6] = target: T1, ShHTL7; assay: Drug affinity response target stability (DARTS) assay; assay type: binding; conditions: 100 μM compound; proteinase K 10 μg/ml
Experimental: ShHTL7 and mutants were diluted to a concentration of 30 μM in 50 mM Tris–HCl pH 7.5, 150 mM NaCl, 0.005% Tween‐20, incubated with GR24 at final concentration of 100 μM for 5 min, and separately with 100 μM Triton X‐100 for 2 h. One sample was kept aside for use as an undigested control. Proteinase K (Hampton Research) was then added to ShHTL7 protein to a final protease concentration of 10 μg/ml. Reactions were incubated at room temperature for 5 min and then SDS–PAGE loading buffer was added to stop the reaction, and the samples were immediately boiled for 3 min. Equal amounts of each sample, corresponding to 10 μg of protein, were run on a 4–20% gradient polyacrylamide gel (Bio‐Rad) and analyzed by Coomassie Blue staining 32.

ShHTL7 [7] = target: T1, ShHTL7; design: method as in PMID 26293962, PMID 26450211; conditions: read-out: IC50 for GR24, in vitro YLG assay; recombinant ShHTL7; cited from earlier work
Striga hermonthica seeds = assay: Striga hermonthica germination bioassay; assay type: in vivo; conditions: for effect on GR24-induced Striga germination: n‐dodecyl‐β‐D‐maltoside at 15 and 1.5 µM, same conditions as Triton
Experimental: Striga hermonthica seeds were collected from Sorghum bicolor field in Sudan. For germination bioassays, Striga seeds were first sterilized and pre‐conditioned as described before 31. […] Triton X‐100/GR24 mixtures were applied (50 μl per disk) in four replicates. Corresponding volumes of GR24 and sterile MiliQ water were included as positive and negative control, respectively. The petri dishes were sealed with parafilm, enfolded with aluminum foil, and incubated for 48 h at 30°C. The germinated (seeds with radicle emerging through the seed coat) and non‐germinated Striga seeds were recorded under a binocular, and germination percentage was calculated.

CC(C)(C)CC(C)(C)c1ccc(OCCO)cc1 [4-ter-octylphenol Monoethoxylate, 4‐ter‐octylphenol monoethoxylate]
IC50 (ShHTL7 [1]): 9240 ± 3170 nM

CC1=CC(O/C=C2/C(=O)OC3c4ccccc4CC23)OC1=O (stereo not shown) [GR24]
IC50 (ShHTL6): ~500 nM
Kd (ShHTL7 [2]): 920 ± 10 nM
EC50 of GR24 for ShHTL7 in transgenic Arabidopsis (ShHTL7 [3]): picomolar range
EC50 (ShHTL7 [3]; read-out: EC50 (vs. GR24), seed germination in transgenic Arabidopsis lines expressing ShHTL7, ref Toh et al., 2015 (ref. 22)): 0.0175 nM
effect on ShHTL7 aggregation temperature (T agg) (ShHTL7 [4]): destabilized
EC50 (ShHTL4‐6): 10 to 300 nM
Kd (ShHTL7 [5]): 390 ± 50 nM
IC50 (ShHTL7 [1]): 870 ± 60 nM
protection of ShHTL7 from digestion by proteinase K (ShHTL7 [6]): efficiently protected
IC50 (ShHTL7 [7]): ~500 nM

CCOC(=O)c1ccccc1-c1c2ccc(=O)cc-2oc2cc(OC3C=C(C)C(=O)O3)ccc12 (stereo not shown) [YLG, reference compound]
time for hydrolysis of YLG by ShHTL7 (ShHTL7 [1]; 3 μM ShHTL7, 1 μM YLG, absence of Triton): ≤ 50 min

CCCCCCCCCCCCO[C@@H]1O[C@H](CO)[C@@H](O[C@H]2O[C@H](CO)[C@@H](O)[C@H](O)[C@H]2O)[C@H](O)[C@H]1O [n‐dodecyl‐β‐D‐maltoside, reference compound]
binding to ShHTL7 (MST) (ShHTL7 [2]; authors' reply in peer review file): does neither bind
effect on ShHTL7 aggregation temperature (T agg) (ShHTL7 [4]): did not increase
effect on ShHTL7 aggregation temperature (T agg) (ShHTL7 [4]; listed as nDM): nor increase Tagg
effect on GR24-induced Striga germination (Striga hermonthica seeds): did not affect germination
effect on GR24-induced Striga germination (Striga hermonthica seeds; listed as nDM): does not block germination

CC(C)(C)CC(C)(C)c1ccc(OCC(=O)O)cc1 [PAA, 2‐[4‐(2,4,4‐trimethylpentan‐2‐yl)phenoxy]acetic acid]
Kd (ShHTL7 [2]): 1700 ± 240 nM
effect on ShHTL7 aggregation temperature (T agg) (ShHTL7 [4]): stabilized
inhibition at 10 µM (Striga hermonthica seeds; Striga hermonthica, 48 h, read-out: inhibition of S. hermonthica germination): ≤ 40%
IC50 (ShHTL7 [1]): 1480 nM

CC(C)(C)CC(C)(C)c1ccc(OCCOCCO)cc1 [4-ter-octylphenol diethoxylate, 4‐ter‐octylphenol diethoxylate]
IC50 (ShHTL7 [1]): 7480 ± 2130 nM
